These results are taken from patent US20250235453A1, “TRIAZOLOPYRIDAZINE COMPOUNDS USEFUL AS RAC1 INHIBITORS” (Revere Pharmaceuticals, priority 2021, published 2025).

Molecules are shown by their SMILES. Like-named read-outs stand apart in the source and are kept apart here. Bounds are passed on as bounds.

Data set [1] has as its target T1, Rac1 (Homo sapiens, UniProt P63000).
T1 construct: His (N)
Nature of the data set: Rac Activation AlphaScreen Assay (Rac1 AS). Format: biochemical. Here is the method:
The IC50 values reported in Tables 1-6 were obtained from the Rae Activation AlphaScreen Assay (Rac1 AS) assay described in subsection 2 under the section entitled “In Vitro Assays”. “†” represents an IC50 of greater than 100 uM; “††” represents an IC50 of greater than 10 uM and less than 50 uM; and “†††” represents an IC50 of less than 10 uM. “POC” means percent of control. […] Lower POC values reflect greater inhibition. “NT” means not tested.
2. Rac Activation AlphaScreen Assay (Rac1 AS)
AlphaScreen® assays were performed in 96-well microplates in a final reaction volume of 60 μL. Recombinant His-Rac1, recombinant GST-PBD (PAK Binding Domain), donor and acceptor beads (PerkinElmer), and inhibitors were incubated in exchange buffer (20 mM Tris pH 7.5, 50 mM NaCl, 1 mM MgCl2, 1 mM EDTA, 500 nM GTPyS (guanosine 5′-[Y-thio]triphosphate)) at 37° C. Readings were performed on a Tecan M1000 pro microplate reader after 1 hour. Data was analyzed using the GraphPad Prism software (GraphPad Software, Inc.), and IC50 (dose leading to 50% disruption of complex) was calculated from the dose-response curves.
(In general: Bead proximity is the source of the signal in Alpha formats.)

The target in data set [2] is T2, Rac (Homo sapiens, UniProt P63000).
T2 construct: host or cells: fibroblasts
The note with it: relative to NSC23766; cited from earlier work.

Data set [3] addresses T3, Rac-GEF Vav2 with nucleotide-free Rac1 (G15A) (Homo sapiens, UniProt P63000, G15A).
T3 construct: host or cells: MDA-MB-435
The conditions noted are these: MDA-MB-435 breast cancer cells; <5 mM; cited from earlier work.

For data set [4], the target named is T4, Rac-GEF Tiam-1 with Rac1 (G15A) (Homo sapiens, UniProt P63000, G15A).
T4 construct: host or cells: MDA-MB-435
The conditions noted are these: MDA-MB-435 cells; similar concentrations (<5 mM); cited from earlier work.

For data set [5] the following is noted: oral administration in mice; cited from earlier work.
For data set [6] the following is noted: in vivo, cited from earlier work.
Data set [7] has as its system animal models of estrogen positive and HER2 positive breast cancer, prostate cancer, melanoma and colorectal cancer. The note with it: single agent and in combination with standard of care; cited from earlier work.

On to `Cc1ccc(-c2nnc3ccc(-c4cccc(NC(=O)c5cccc(SC(C)(C)C)c5)c4)nn23)o1` [Compound 111], for which the IC50 in data set [1] (Rac1 AS assay, dose leading to 50% disruption of complex, read-out: IC50) is under 10 µM.

As for `CCn1c2ccccc2c2cc(Nc3ccnc(NCCCN4CCOCC4)n3)ccc21` [EHop-016], the IC50 in data set [1] (AlphaLisa assay, read-out: IC50 inhibitory concentration versus wild type Rac1) is about 10 µM. In addition, in data set [2], the “more efficient than NSC23766 as an inhibitor of Rac activity” value is recorded as 100 fold. The “association of the Rac-GEF Vav2 with nucleotide-free Rac1 (G15A)” value in data set [3] is “inhibits”. Further, the “association of the Rac-GEF Tiam-1 with Rac1 (G15A)” value in data set [4] is listed as “does not affect”. Also, the systemic exposure entry in data set [5] is given as “low systemic exposure”.

Consider `FC(F)(F)c1ccc2c(SCCCCCCn3cnc(CN4CCOCC4)c3)ccnc2c1` [GYS32661], for which the oral bioavailability entry in data set [6] (po) is on record as “not orally bioavailable”. In addition, in data set [6], the plasma half-life result is reported as “relatively short”. The “activity against animal models of cancer” value in data set [7] was “very good activity”.
